Results published in patent US6291470A, “Indole derivatives process for producing the same and medicinal uses of the same” (Toray Industries, Inc., priority 1992, dated 2001).

Key:
δ-opioid receptor [1] = target: T1, δ-opioid receptor (Mus musculus, UniProt P32300); assay: Change in δ-antagonist activity against DPDPE with time in mouse vas deferens (MVD); settings: for Ratio of IC50 Values / Kb: 173 and NTI at 20 nM, 174 and 5'-NTII at 100 nM; for Kb: read-out: Ke; for change of antagonist activity with time (in words): 15 min to 1 hour; for activity at 1 hour relative to 5'-NTII: vs 5'-NTII
T1 construct: from tissue; host or cells: vas deferens of male ddy mice
T1 sequence (P32300 whole entry): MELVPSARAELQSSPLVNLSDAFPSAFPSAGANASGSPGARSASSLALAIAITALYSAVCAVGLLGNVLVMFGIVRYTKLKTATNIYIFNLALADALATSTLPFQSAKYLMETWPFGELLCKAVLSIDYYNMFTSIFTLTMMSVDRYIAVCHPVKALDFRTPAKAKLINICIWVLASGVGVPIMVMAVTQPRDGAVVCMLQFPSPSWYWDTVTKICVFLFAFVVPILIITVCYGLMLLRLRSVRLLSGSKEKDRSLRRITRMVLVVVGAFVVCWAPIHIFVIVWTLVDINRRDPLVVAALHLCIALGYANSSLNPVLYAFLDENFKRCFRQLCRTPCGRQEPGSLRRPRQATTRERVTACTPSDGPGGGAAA
Procedure: (§1) In this experiment, ddy male mice were used. In a Magnus' tube which is filled with Krebes-Henseleit solution (NaCl […]; KCl 4.7 mM; CaCl2 2.5 mM; KH2 PO4 1.1 mM; NaHCO3 25 mM; glucose 11 mM) kept at 37° C., and into which an atmosphere consisting of 5% carbon dioxide and 95% oxygen was flown, vas deferens taken from the animals was suspended. Electric stimulation was applied through ring-shaped platinum electrodes mounted on the upper and lower portions of the tube at a frequency of 0.1 Hz and 5.0 mS duration. The contraction of the tissue was recorded on polygraph using isometric transducer.
(§2) Then 100 nM of the test compound was added. Twenty minutes later, DPDPE was begun to be added cumulatively. The ratio of IC50 values in the presence and absence of the test compound, Ke value (the molar concentration of the test compound necessary for translating the dose-effect curve to the curve of twice dose) and pA2 value were determined. The pA2 value was determined by the method of Shild et al (Shild, H. O., Br. J. Pharmac. Chamotehr., 4, 277 (1949)). That is, the logarithm of the test compound (log[test compound]) was plotted along the abscissa and the logarithm of the value obtained by subtracting 1 from the ratio of IC50 values was plotted in the presence and absence of the test compound [log(dose ratio-1)] along the ordinate. The pA2 value was determined from the value on the abscissa when the value on the ordinate of the obtained line is 0.
Using MVD, the antagonist activities of compounds 173 and 174 against DPDPE were determined. The ratio of IC50 values, Ke values and pA2 values at 15 minutes, 30 minutes and 1 hour from the addition of the test compounds were calculated. Since the concentrations of the test compounds are different, the reciprocals of Ke values were plotted in FIGS. 1 and 2.

[2] = tested on: delayed type hypersensitivity; assay: Mouse Delayed Type Hypersensitivity Reaction Suppression Test-2 (donor spleen cells, subcutaneous administration); assay type: in vivo; settings: C57BL/6 spleen cells; subcutaneous everyday from day of sensitization, totally 8 days; BALB/c
Source text: BALB/c mice (male, 7 weeks old) were used, and each group consisted of 4-5 mice. Spleen cells (1×10^7 ) obtained from a donor mouse (C57BL/6) was subcutaneously administered to sensitize the mice. On Day 7 from the sensitization, the spleen cells (5×10^6) of the donor were subcutaneously administered on the right hing leg and spleen cells (5×10^6) obtained from a mouse of the same line as the recipient mice were subcutaneously administered on the left footpad. Twenty four hours later, the thicknesses of the right and left footpads were measured with a dial thickness gage, and the difference in thicknesses of the right and left footpads before the induction of the reaction and 24 hours after the induction of the reaction was employed as the index of the degree of the reaction.
The test compound was dissolved in 10% DMSO-water and was subcutaneously administered everyday from the day of sensitization to the day of induction of the reaction, totally 8 days. In the control group, 10% DMSO-water alone was administered in the same manner. The volume of administration was 10 ml/kg in both study groups and in the control group. Delayed Type Hypersensitivity Reaction=(thickness of right foodpad after induction-thickness of right footpad before induction)-(thickness of […] before induction) [formula]
wherein C means delayed type hypersensitivity reaction of the group to which the test compound was administered and D means the delayed type hypersensitivity reaction of the group to which vehicle was administered.

δ-opioid receptor [3] = target: T1, δ-opioid receptor; assay: δ-opioid antagonist activity against DPDPE in mouse vas deferens (MVD); settings: 20 min; for Ratio of IC50 Values: DPDPE IC50 with/without 100 nM test compound; for Kb: against DPDPE, test compound 100 nM, read-out: Ke
Procedure: Using mouse vas deferens (MVD), the antagonist activity against DPDPE which is a δ-opioid agonist was checked.
as §1, §2

κ-opioid receptor = target: T2, κ-opioid receptor (Cavia porcellus, UniProt P41144); assay: κ-opioid antagonist activity against U-50488H in guinea pig ileum (GPI); settings: 20 min; for Ratio of IC50 Values: U-50488H IC50 with/without 100 nM test compound; for Kb: against U-50488H, test compound 100 nM, read-out: Ke
T2 construct: from tissue; host or cells: ileum longitudinal muscle of male Hartley guinea pigs
T2 sequence (P41144 whole entry): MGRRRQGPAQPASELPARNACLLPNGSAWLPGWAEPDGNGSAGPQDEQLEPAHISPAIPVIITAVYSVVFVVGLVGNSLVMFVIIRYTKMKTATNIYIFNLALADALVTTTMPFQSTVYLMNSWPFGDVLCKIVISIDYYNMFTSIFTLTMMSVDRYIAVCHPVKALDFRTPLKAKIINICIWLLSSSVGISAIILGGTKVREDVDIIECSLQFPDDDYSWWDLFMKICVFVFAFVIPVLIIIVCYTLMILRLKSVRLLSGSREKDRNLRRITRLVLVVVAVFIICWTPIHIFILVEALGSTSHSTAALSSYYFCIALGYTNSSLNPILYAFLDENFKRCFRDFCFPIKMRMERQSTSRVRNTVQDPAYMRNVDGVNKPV
Procedure: Using guinea pig ileum (GPI), antagonist activities against U-50488H which is a κ-opioid agonist was determined.
Hartley male guinea pigs were used. After killing the guinea pigs by clubbing, ilea were taken. The inside of the ilea was washed with a nutrient liquid and only longitudinal muscles were peeled off. Using the thus obtained longitudinal muscles, the tests were carried out using the same apparatus as used in the experiment employing MVD.
First, U-50488H which is a κ-agonist was cumulatively added and IC50 value was determined. Thereafter, the muscle was well washed with the nutrient liquid. After the contraction reaction became stable, 100 nM of a test compound was added. From 20 minutes after, U-50488H was cumulatively added and the ratio of IC50 values, Ke value and pA2 value were determined in the same manner as in the experiment employing MVD.

[4] = tested on: Cerebral cortex nerve cells; assay: Brain cell-protecting action, MTT method; assay type: cell-based, rat; settings: 10 μM; for brain cell-protecting action (in words): MTT; for Ratio of Absorbances: study group / control group, 570 nm, 3 days culture; for brain cell-protecting activity relative to nor-BNI (in words): vs nor-BNI
Procedure: The brain cell-protecting action was examined by MTT [3-(4,5-dimethylthiazol-2-yl)-2,5-diphenyltetrazolium bromide] method. MTT yields a dark blue formazan compound by mitochondria in living cells. This compound was dissolved in isopropanol and absorbance at 570 nm was measured, thereby measuring the number of living cells.
Cerebral cortex nerve cells of fetal rats of 17 days old were placed in wells of a 96-well plate at a population density of 1×10^5 cells/cm^2. Then 10 μM of a test compound was added and the cells were cultured in 200 μl of mixed medium of D-MEM/F.12 (1:1) for 3 days (37° C., 5%CO2). In a control group, the medium alone was added Then […] of MTT solution in PBS (6mg/ml) was added and the mixture was allowed to react for 3 hours (37° C., 5% CO2). After removing the culture medium, 100 μl of isopropanol was added and the absorbance was measured.
The ratio of the absorbances of the study group and the control group was employed as an index of brain cell-protecting action.

Oc1ccc2c3c1O[C@H]1c4[nH]c5cc(N=C=S)ccc5c4C[C@@]4(O)[C@@H](C2)N(CC2CC2)CC[C@]314 [Compound 174, 17-cyclopropylmethyl-6,7-didehydro-4,5α-epoxy-3,14β-dihydroxy-6'-isothiocyanato-6,7-2',3'-indolomorphinan]
Ratio of IC50 Values (δ-opioid receptor [1]; 15 min): 25.7
Kb (δ-opioid receptor [1]; 15 min): 4.05 nM
change of antagonist activity with time (in words) (δ-opioid receptor [1]): increased with time
Ratio of IC50 Values (δ-opioid receptor [1]; 30 min): 47.6
Kb (δ-opioid receptor [1]; 30 min): 2.15 nM
Ratio of IC50 Values (δ-opioid receptor [1]; 60 min): 58.6
Kb (δ-opioid receptor [1]; 60 min): 1.74 nM
activity at 1 hour relative to 5'-NTII (δ-opioid receptor [1]; 1 hour): about 7 times

Oc1ccc2c3c1O[C@H]1c4[nH]c5c(N=C=S)cccc5c4C[C@@]4(O)[C@@H](C2)N(CC2CC2)CC[C@]314 [Compound 173, 17-cyclopropylmethyl-6,7-didehydro-4,5α-epoxy-3,14β-dihydroxy-7'-isothiocyanato-6,7-2',3'-indolomorphinan]
Ratio of IC50 Values (δ-opioid receptor [1]; 15 min): 105
Kb (δ-opioid receptor [1]; 15 min): 0.19 nM
change of antagonist activity with time (in words) (δ-opioid receptor [1]): increased with time
Ratio of IC50 Values (δ-opioid receptor [1]; 30 min): 253
Kb (δ-opioid receptor [1]; 30 min): 0.08 nM
Ratio of IC50 Values (δ-opioid receptor [1]; 60 min): 306
Kb (δ-opioid receptor [1]; 60 min): 0.07 nM
activity at 1 hour relative to 5'-NTII (δ-opioid receptor [1]; 1 hour): about 170 times
activity at 1 hour relative to NTI (δ-opioid receptor [1]; 1 hour, vs NTI): about 3.5 times
activity relative to compound 174 (in words) (δ-opioid receptor [1]; vs compound 174): inferior to that of compound 174

C[S+]([O-])c1cccc2c3c([nH]c12)[C@@H]1Oc2c(O)ccc4c2[C@@]12CCN(CC1CC1)[C@H](C4)[C@]2(O)C3 (single isomer, unassigned) [Compound 591, 17-cyclopropylmethyl-6,7-didehydro-4,5α-epoxy-3,14β-dihydroxy-7'-methylsulfinyl-6,7-2',3'-indolomorphinan]
% Suppression [2]: 16%

O=C(NCC1CC1)c1ccc2[nH]c3c(c2c1)C[C@@]1(O)[C@H]2Cc4ccc(O)c5c4[C@@]1(CCN2CC1CC1)[C@H]3O5 [Compound 7, 17-cyclopropylmethyl-6,7-didehydro-4,5α-epoxy-3,14β-dihydroxy-5'-(N-cyclopropylmethylcarbamoyl)-6,7-2',3'-indolomorphinan]
Ratio of IC50 Values (δ-opioid receptor [3]): 33.2
Kb (δ-opioid receptor [3]): 3.11 nM
Ratio of IC50 Values (κ-opioid receptor): 22.8
Kb (κ-opioid receptor): 4.59 nM
brain cell-protecting action (in words) [4]: Clear activities
Ratio of Absorbances [4]: 5.31

CCCOC(=O)c1ccc2c3c([nH]c2c1)[C@@H]1Oc2c(O)ccc4c2[C@@]12CCN(CC1CC1)[C@H](C4)[C@]2(O)C3 [Compound 393, 17-cyclopropylmethyl-6,7-didehydro-4,5α-epoxy-3,14β-dihydroxy-6'-propoxycarbonyl-6,7-2',3'-indolomorphinan]
Ratio of IC50 Values (δ-opioid receptor [3]): 12.3
Kb (δ-opioid receptor [3]): 8.85 nM
% Suppression [2]: 33%

CN(C)CCc1ccc2[nH]c3c(c2c1)C[C@@]1(O)[C@H]2Cc4ccc(O)c5c4[C@@]1(CCN2CC1CC1)[C@H]3O5 [Compound 9, 17-cyclopropylmethyl-6,7-didehydro-4,5α-epoxy-3,14-dihydroxy-5'-[2-(N,N-dimethylamino)ethyl]-6,7-2',3'-indolomorphinan]
Ratio of IC50 Values (δ-opioid receptor [3]): 25.6
Kb (δ-opioid receptor [3]): 4.07 nM
Ratio of IC50 Values (κ-opioid receptor): 99.0
Kb (κ-opioid receptor): 4.07 nM
brain cell-protecting action (in words) [4]: Clear activities
Ratio of Absorbances [4]: 8.27
brain cell-protecting activity relative to nor-BNI (in words) [4]: higher than that of nor-BNI

O=S(=O)(NCC1CC1)c1ccc2c3c([nH]c2c1)[C@@H]1Oc2c(O)ccc4c2[C@@]12CCN(CC1CC1)[C@H](C4)[C@]2(O)C3 [Compound 45, 17-cyclopropylmethyl-6,7-didehydro-4,5α-epoxy-3,14β-dihydroxy-6'-(N-cyclopropylmethylsulfamoyl)-6,7-2',3'-indolomorphinan]
Ratio of IC50 Values (δ-opioid receptor [3]): 7.44
Kb (δ-opioid receptor [3]): 15.5 nM
Ratio of IC50 Values (κ-opioid receptor): 3.22
Kb (κ-opioid receptor): 45.1 nM

CN(C)Cc1ccc2[nH]c3c(c2c1)C[C@@]1(O)[C@H]2Cc4ccc(O)c5c4[C@@]1(CCN2CC1CC1)[C@H]3O5 [Compound 10, 17-cyclopropylmethyl-6,7-didehydro-4,5α-epoxy-3,14β-dihydroxy-5'-(N,N-dimethylamino)methyl-6,7-2',3'-indolomorphinan]
Ratio of IC50 Values (δ-opioid receptor [3]): 11.4
Kb (δ-opioid receptor [3]): 9.62 nM
Ratio of IC50 Values (κ-opioid receptor): 19.4
Kb (κ-opioid receptor): 9.67 nM
brain cell-protecting action (in words) [4]: Clear activities
Ratio of Absorbances [4]: 7.58

C[S+]([O-])c1cccc2c3c([nH]c12)[C@@H]1Oc2c(O)ccc4c2[C@@]12CCN(CC1CC1)[C@H](C4)[C@]2(O)C3 (single isomer, unassigned) [Compound 592, 17-cyclopropylmethyl-6,7-didehydro-4,5α-epoxy-3,14β-dihydroxy-7'-methylsulfinyl-6,7-2',3'-indolomorphinan]
% Suppression [2]: 20%

Oc1ccc2c3c1O[C@H]1c4[nH]c5ccc(CNCC6CC6)cc5c4C[C@@]4(O)[C@@H](C2)N(CC2CC2)CC[C@]314 [Compound 180, 17-cyclopropylmethyl-6,7-didehydro-4,5α-epoxy-3,14β-dihydroxy-5'-(N-cyclopropylmethylamino)methyl-6,7-2',3'-indolomorphinan]
Ratio of IC50 Values (δ-opioid receptor [3]): 15.2
Kb (δ-opioid receptor [3]): 7.04 nM
brain cell-protecting action (in words) [4]: Clear activities
Ratio of Absorbances [4]: 8.73
brain cell-protecting activity relative to nor-BNI (in words) [4]: higher than that of nor-BNI

O=C(NCC1CC1)c1ccc2c3c([nH]c2c1)[C@@H]1Oc2c(O)ccc4c2[C@@]12CCN(CC1CC1)[C@H](C4)[C@]2(O)C3 [Compound 47, 17-cyclopropylmethyl-6,7-didehydro-4,5α-epoxy-3,14β-dihydroxy-6'-(N-cyclopropylmethylcarbamoyl)-6,7-2',3'-indolomorphinan]
Ratio of IC50 Values (δ-opioid receptor [3]): 13.0
Kb (δ-opioid receptor [3]): 8.33 nM
Ratio of IC50 Values (κ-opioid receptor): 3.11
Kb (κ-opioid receptor): 47.4 nM
